Laboratory results published in a compilation of properties of binary mixtures (doi:10.1016/j.molliq.2021.117187).

Experiment: xn = mol fraction of the nth substance listed
Conditions: 100 kPa

CCCC[n+]1ccn(C)c1.F[B-](F)(F)F + CCOC(C)=O
speed of sound [m/s]
Conditions | x1 = 0.1012 | x1 = 0.1992 | x1 = 0.312 | x1 = 0.3985 | x1 = 0.5056 | x1 = 0.5996 | x1 = 0.7054 | x1 = 0.7963 | x1 = 0.9185
298.15 K | 1186 | 1228.1 | – | 1307 | 1351.4 | – | 1437.5 | – | –
303.15 K | 1164.6 | 1207.8 | – | – | 1334.1 | – | 1422.3 | – | 1509.6
308.15 K | – | – | 1232 | 1270.6 | 1317.1 | 1360.3 | 1407.5 | – | 1496.9
313.15 K | – | 1167.6 | – | 1252.4 | – | – | 1392.6 | 1438.8 | 1484.1
318.15 K | – | 1147.5 | 1193.9 | 1234.4 | 1283.1 | 1328.3 | 1377.8 | 1425.1 | –
323.15 K | 1080.1 | 1127.5 | 1175 | 1216.4 | – | 1312.6 | 1363.2 | 1411.6 | 1459.1
